Patent US20260356819A1, “OXOISOINDOLINYL-SUBSTITUTED […] DERIVATIVE AND USE THEREOF” (GLUETACS THERAPEUTICS (SHANGHAI) CO., LTD., priority 2023, published 2026)

Key:
Type in all cases: cell-based
Conditions in all cases: compounds at 50 nM and 500 nM
WEE1 = biological target: T1, WEE1 (Homo sapiens, UniProt P30291+Q96SW2); assay: Western blot degradation of WEE1 in hPBMCs (24 h)
T1 construct: The supernatant was aspirated as the extracted total cell protein; endogenous in cells; host or cells: human peripheral blood mononuclear cells (hPBMCs)
In short: (§1)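 Degradation in primary human PBMCs after 24 h compound exposure at 50 and 500 nM. Western blot band intensities, normalised to an internal control protein, expressed as % protein remaining relative to DMSO.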

CK1α = biological target: T2, CK1α (Homo sapiens, UniProt P48729+Q96SW2); assay: Western blot degradation of CK1α in hPBMCs (24 h)
T2 construct: The supernatant was aspirated as the extracted total cell protein; endogenous in cells; host or cells: human peripheral blood mononuclear cells (hPBMCs)
In short: as §1

IKZF3 = biological target: T3, IKZF3 (Homo sapiens, UniProt Q96SW2+Q9UKT9); assay: Western blot degradation of IKZF3 in hPBMCs (24 h)
T3 construct: The supernatant was aspirated as the extracted total cell protein; endogenous in cells; host or cells: human peripheral blood mononuclear cells (hPBMCs)
In short: as §1

IKZF1 = biological target: T4, IKZF1 (Homo sapiens, UniProt Q13422+Q96SW2); assay: Western blot degradation of IKZF1 in hPBMCs (24 h)
T4 construct: The supernatant was aspirated as the extracted total cell protein; endogenous in cells; host or cells: human peripheral blood mononuclear cells (hPBMCs)
In short: as §1

IKZF2 = biological target: T5, IKZF2 (Homo sapiens, UniProt Q96SW2+Q9UKS7); assay: Western blot degradation of IKZF2 in hPBMCs (24 h)
T5 construct: The supernatant was aspirated as the extracted total cell protein; endogenous in cells; host or cells: human peripheral blood mononuclear cells (hPBMCs)
In short: as §1

GSPT1 = biological target: T6, GSPT1 (Homo sapiens, UniProt P15170+Q96SW2); assay: Western blot degradation of GSPT1 in hPBMCs (24 h)
T6 construct: The supernatant was aspirated as the extracted total cell protein; endogenous in cells; host or cells: human peripheral blood mononuclear cells (hPBMCs)
In short: as §1

T2 sequence (P48729 whole entry): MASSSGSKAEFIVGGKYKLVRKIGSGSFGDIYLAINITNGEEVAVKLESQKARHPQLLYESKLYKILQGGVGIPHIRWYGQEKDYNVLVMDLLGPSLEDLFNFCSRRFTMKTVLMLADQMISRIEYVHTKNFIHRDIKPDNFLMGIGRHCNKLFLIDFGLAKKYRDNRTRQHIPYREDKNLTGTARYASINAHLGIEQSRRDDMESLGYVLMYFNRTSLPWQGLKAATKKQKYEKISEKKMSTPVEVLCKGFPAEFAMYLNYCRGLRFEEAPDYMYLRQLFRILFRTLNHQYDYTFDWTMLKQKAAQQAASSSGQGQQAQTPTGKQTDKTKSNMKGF
T2 sequence (Q96SW2 whole entry): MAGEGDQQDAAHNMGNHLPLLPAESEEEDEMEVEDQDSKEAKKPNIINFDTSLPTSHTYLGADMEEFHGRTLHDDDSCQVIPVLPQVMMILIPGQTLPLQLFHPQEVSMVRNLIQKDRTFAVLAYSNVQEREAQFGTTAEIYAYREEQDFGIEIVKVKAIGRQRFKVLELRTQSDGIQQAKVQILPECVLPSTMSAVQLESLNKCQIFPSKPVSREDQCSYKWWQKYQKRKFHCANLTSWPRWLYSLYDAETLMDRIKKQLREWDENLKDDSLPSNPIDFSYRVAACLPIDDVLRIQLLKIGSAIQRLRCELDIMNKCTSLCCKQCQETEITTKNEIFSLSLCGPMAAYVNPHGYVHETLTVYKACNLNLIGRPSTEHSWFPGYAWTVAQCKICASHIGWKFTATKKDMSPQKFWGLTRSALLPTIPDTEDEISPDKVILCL
T2 sequence (Q16531 whole entry partner): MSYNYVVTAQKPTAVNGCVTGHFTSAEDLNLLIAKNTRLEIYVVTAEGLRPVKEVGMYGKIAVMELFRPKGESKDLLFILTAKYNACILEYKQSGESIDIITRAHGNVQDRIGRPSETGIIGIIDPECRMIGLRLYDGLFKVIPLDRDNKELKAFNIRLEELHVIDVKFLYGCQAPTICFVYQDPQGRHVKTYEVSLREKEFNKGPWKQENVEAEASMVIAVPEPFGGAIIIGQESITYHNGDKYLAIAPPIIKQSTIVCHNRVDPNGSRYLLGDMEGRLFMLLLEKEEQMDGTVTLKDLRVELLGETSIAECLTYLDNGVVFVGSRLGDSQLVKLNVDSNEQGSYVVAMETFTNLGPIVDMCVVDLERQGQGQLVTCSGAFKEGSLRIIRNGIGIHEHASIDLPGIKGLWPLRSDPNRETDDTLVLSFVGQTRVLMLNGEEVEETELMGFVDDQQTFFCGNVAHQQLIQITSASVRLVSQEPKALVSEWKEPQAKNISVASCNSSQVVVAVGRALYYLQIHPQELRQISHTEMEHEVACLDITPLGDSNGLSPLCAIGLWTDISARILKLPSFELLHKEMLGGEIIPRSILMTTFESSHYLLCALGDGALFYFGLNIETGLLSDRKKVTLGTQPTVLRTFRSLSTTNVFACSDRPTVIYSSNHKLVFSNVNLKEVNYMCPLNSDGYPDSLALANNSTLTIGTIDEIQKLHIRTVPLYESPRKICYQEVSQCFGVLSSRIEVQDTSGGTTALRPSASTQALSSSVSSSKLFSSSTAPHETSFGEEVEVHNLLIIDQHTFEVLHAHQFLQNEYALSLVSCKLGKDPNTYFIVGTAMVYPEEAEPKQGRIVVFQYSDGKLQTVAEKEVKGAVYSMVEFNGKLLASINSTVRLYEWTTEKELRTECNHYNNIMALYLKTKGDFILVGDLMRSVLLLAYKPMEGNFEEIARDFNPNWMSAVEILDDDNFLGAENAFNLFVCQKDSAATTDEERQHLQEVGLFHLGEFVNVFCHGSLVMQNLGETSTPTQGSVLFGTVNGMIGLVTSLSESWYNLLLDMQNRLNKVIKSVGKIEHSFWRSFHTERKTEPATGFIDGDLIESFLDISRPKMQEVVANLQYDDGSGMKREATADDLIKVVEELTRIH
T5 sequence (Q9UKS7 whole entry): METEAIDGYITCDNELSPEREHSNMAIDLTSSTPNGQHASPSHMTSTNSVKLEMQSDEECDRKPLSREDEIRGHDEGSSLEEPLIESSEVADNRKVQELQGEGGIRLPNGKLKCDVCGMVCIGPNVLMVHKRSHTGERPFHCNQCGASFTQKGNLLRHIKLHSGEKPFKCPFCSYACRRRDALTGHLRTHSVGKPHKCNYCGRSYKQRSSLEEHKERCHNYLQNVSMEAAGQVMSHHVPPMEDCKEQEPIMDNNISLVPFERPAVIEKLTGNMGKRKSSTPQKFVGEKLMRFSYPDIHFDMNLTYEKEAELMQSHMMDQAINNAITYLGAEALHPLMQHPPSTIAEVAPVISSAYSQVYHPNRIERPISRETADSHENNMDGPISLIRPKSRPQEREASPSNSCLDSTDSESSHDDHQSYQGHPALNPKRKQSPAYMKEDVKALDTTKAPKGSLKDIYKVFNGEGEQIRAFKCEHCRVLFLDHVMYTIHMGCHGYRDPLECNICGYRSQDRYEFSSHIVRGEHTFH
T5 sequence (Q96SW2 whole entry): as the sequence (Q96SW2 whole entry) above
T5 sequence (Q16531 whole entry partner): as the sequence (Q16531 whole entry partner) above
T6 sequence (P15170 whole entry): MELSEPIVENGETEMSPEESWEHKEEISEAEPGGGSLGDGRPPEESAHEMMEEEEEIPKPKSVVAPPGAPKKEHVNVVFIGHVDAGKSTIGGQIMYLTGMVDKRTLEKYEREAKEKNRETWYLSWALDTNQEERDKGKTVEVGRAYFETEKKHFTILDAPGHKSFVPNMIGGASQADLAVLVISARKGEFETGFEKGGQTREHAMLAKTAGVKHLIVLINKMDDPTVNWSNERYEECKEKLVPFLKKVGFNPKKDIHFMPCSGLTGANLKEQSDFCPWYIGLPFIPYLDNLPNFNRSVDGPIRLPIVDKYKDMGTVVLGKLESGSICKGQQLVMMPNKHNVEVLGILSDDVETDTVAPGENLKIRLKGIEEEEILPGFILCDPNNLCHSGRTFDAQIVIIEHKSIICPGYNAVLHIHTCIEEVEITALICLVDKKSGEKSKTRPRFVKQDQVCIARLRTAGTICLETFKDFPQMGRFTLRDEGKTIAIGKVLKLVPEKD
T6 sequence (Q96SW2 whole entry): as the sequence (Q96SW2 whole entry) above
T6 sequence (Q16531 whole entry partner): as the sequence (Q16531 whole entry partner) above
T4 sequence (Q13422 whole entry): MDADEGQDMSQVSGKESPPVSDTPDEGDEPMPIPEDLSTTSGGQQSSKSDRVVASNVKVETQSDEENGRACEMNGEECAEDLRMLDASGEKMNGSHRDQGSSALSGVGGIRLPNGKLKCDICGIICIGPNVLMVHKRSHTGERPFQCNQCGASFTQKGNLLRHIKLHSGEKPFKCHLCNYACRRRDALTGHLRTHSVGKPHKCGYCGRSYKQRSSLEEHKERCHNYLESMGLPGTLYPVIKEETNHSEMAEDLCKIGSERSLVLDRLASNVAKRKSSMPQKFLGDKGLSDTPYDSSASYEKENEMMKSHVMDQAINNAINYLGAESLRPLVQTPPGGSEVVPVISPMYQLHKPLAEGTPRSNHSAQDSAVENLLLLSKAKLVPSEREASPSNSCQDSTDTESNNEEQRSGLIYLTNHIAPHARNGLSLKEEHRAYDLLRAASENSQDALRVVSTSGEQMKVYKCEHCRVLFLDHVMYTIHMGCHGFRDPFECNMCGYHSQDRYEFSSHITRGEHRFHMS
T4 sequence (Q96SW2 whole entry): as the sequence (Q96SW2 whole entry) above
T4 sequence (Q16531 whole entry partner): as the sequence (Q16531 whole entry partner) above
T3 sequence (Q9UKT9 whole entry): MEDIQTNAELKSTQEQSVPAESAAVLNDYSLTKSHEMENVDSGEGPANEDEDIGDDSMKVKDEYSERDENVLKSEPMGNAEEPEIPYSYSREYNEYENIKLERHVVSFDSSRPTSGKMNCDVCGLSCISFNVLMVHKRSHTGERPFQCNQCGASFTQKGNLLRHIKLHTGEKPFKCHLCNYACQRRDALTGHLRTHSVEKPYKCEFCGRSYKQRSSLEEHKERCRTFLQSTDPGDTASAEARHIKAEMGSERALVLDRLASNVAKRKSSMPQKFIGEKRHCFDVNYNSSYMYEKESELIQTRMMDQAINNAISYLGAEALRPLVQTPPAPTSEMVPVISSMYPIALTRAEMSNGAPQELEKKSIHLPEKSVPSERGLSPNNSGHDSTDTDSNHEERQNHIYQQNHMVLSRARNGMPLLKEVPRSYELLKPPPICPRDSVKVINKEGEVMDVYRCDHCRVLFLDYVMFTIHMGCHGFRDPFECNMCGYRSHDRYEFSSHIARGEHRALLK
T3 sequence (Q96SW2 whole entry): as the sequence (Q96SW2 whole entry) above
T3 sequence (Q16531 whole entry partner): as the sequence (Q16531 whole entry partner) above

| SMILES | WEE1 substrate protein remaining % (WEE1) | CK1α substrate protein remaining % (CK1α) | IKZF3 substrate protein remaining % (IKZF3) | IKZF1 substrate protein remaining % (IKZF1) | IKZF2 substrate protein remaining % (IKZF2) | GSPT1 substrate protein remaining % (GSPT1) |
| --- | --- | --- | --- | --- | --- | --- |
| Cc1nc(N2CCN(Cc3ccc4c(c3)C(=O)N(N3CCC(=O)NC3=O)C4=O)CC2)c2c3c(sc2n1)CCC3 [GT-08104, 2-(2,4-dioxotetrahydropyrimidin-1(2H)-yl)-5-((4-(2-methyl-6,7-dihydro-5H-cyclopenta[4,5]thieno[2,3-d]pyrimidin-4-yl)piperazin-1-yl)methyl)isoindoline-1,3-dione] | A (0% ≤ substrate protein remaining % ≤80%) | B (80%< substrate protein remaining % ≤100%) | A (0% ≤ substrate protein remaining % ≤80%) | B (80%< substrate protein remaining % ≤100%) | A (0% ≤ substrate protein remaining % ≤80%) | A (0% ≤ substrate protein remaining % ≤80%) |
| O=C1CCN(N2C(=O)c3ccc(CN4CCN(c5ncc6ccsc6n5)CC4)cc3C2=O)C(=O)N1 [GT-08105, 2-(2,4-dioxotetrahydropyrimidin-1(2H)-yl)-5-((4-(thieno[2,3-d]pyrimidin-2-yl)piperazin-1-yl)methyl)isoindoline-1,3-dione] | B (80%< substrate protein remaining % ≤100%) | B (80%< substrate protein remaining % ≤100%) | A (0% ≤ substrate protein remaining % ≤80%) | B (80%< substrate protein remaining % ≤100%) | A (0% ≤ substrate protein remaining % ≤80%) | A (0% ≤ substrate protein remaining % ≤80%) |
| O=C1CCN(N2C(=O)c3ccc(CN4CCC(c5ncnc6sccc56)CC4)cc3C2=O)C(=O)N1 [GT-08106, 2-(2,4-dioxotetrahydropyrimidin-1(2H)-yl)-5-((4-(thieno[2,3-d]pyrimidin-4-yl)piperidin-1-yl)methyl)isoindoline-1,3-dione] | A (0% ≤ substrate protein remaining % ≤80%) | B (80%< substrate protein remaining % ≤100%) | B (80%< substrate protein remaining % ≤100%) | B (80%< substrate protein remaining % ≤100%) | B (80%< substrate protein remaining % ≤100%) | A (0% ≤ substrate protein remaining % ≤80%) |
| Cc1cc2c(C3CCN(Cc4ccc5c(c4)C(=O)N(N4CCC(=O)NC4=O)C5=O)CC3)ncnc2s1 [GT-08107, 2-(2,4-dioxotetrahydropyrimidin-1(2H)-yl)-5-((4-(6-methylthieno[2,3-d]pyrimidin-4-yl)piperidin-1-yl)methyl)isoindoline-1,3-dione] | A (0% ≤ substrate protein remaining % ≤80%) | A (0% ≤ substrate protein remaining % ≤80%) | A (0% ≤ substrate protein remaining % ≤80%) | A (0% ≤ substrate protein remaining % ≤80%) | A (0% ≤ substrate protein remaining % ≤80%) | A (0% ≤ substrate protein remaining % ≤80%) |
| O=C1CCN(N2C(=O)c3ccc(CN4CCC(c5ncnc6sc(-c7ccccc7)cc56)CC4)cc3C2=O)C(=O)N1 [GT-08108, 2-(2,4-dioxotetrahydropyrimidin-1(2H)-yl)-5-((4-(6-phenylthieno[2,3-d]pyrimidin-4-yl)piperidin-1-yl)methyl)isoindoline-1,3-dione] | A (0% ≤ substrate protein remaining % ≤80%) | A (0% ≤ substrate protein remaining % ≤80%) | A (0% ≤ substrate protein remaining % ≤80%) | A (0% ≤ substrate protein remaining % ≤80%) | A (0% ≤ substrate protein remaining % ≤80%) | A (0% ≤ substrate protein remaining % ≤80%) |
| O=C1CCN(N2C(=O)c3ccc(CN4CCC(c5ncnc6scc(-c7ccccc7)c56)CC4)cc3C2=O)C(=O)N1 [GT-08109, 2-(2,4-dioxotetrahydropyrimidin-1(2H)-yl)-5-((4-(5-phenylthieno[2,3-d]pyrimidin-4-yl)piperidin-1-yl)methyl)isoindoline-1,3-dione] | A (0% ≤ substrate protein remaining % ≤80%) | A (0% ≤ substrate protein remaining % ≤80%) | A (0% ≤ substrate protein remaining % ≤80%) | A (0% ≤ substrate protein remaining % ≤80%) | A (0% ≤ substrate protein remaining % ≤80%) | A (0% ≤ substrate protein remaining % ≤80%) |
| Cc1nc(C2CCN(Cc3ccc4c(c3)C(=O)N(N3CCC(=O)NC3=O)C4=O)CC2)c2c(-c3ccccc3)csc2n1 [GT-08110, 2-(2,4-dioxotetrahydropyrimidin-1(2H)-yl)-5-((4-(2-methyl-5-phenylthieno[2,3-d]pyrimidin-4-yl)piperidin-1-yl)methyl)isoindoline-1,3-dione] | A (0% ≤ substrate protein remaining % ≤80%) | A (0% ≤ substrate protein remaining % ≤80%) | A (0% ≤ substrate protein remaining % ≤80%) | A (0% ≤ substrate protein remaining % ≤80%) | A (0% ≤ substrate protein remaining % ≤80%) | A (0% ≤ substrate protein remaining % ≤80%) |
| Cc1nc(C2CCN(Cc3ccc4c(c3)C(=O)N(N3CCC(=O)NC3=O)C4=O)CC2)c2c3c(sc2n1)CCCC3 [GT-08111, 2-(2,4-dioxotetrahydropyrimidin-1(2H)-yl)-5-((4-(2-methyl-5,6,7,8-tetrahydrobenzo[4,5]thieno[2,3-d]pyrimidin-4-yl)piperidin-1-yl)methyl)isoindoline-1,3-dione] | B (80%< substrate protein remaining % ≤100%) | A (0% ≤ substrate protein remaining % ≤80%) | B (80%< substrate protein remaining % ≤100%) | B (80%< substrate protein remaining % ≤100%) | B (80%< substrate protein remaining % ≤100%) | A (0% ≤ substrate protein remaining % ≤80%) |
| O=C1CCN(N2Cc3cc(CN4CCC(c5ncnc6sc7c(c56)CCCC7)CC4)ccc3C2=O)C(=O)N1 [GT-08112, 1-(1-oxo-5-((4-(5,6,7,8-tetrahydrobenzo[4,5]thieno[2,3-d]pyrimidin-4-yl)piperidin-1-yl)methyl)isoindolin-2-yl)dihydropyrimidine-2,4(1H,3H)-dione] | B (80%< substrate protein remaining % ≤100%) | B (80%< substrate protein remaining % ≤100%) | B (80%< substrate protein remaining % ≤100%) | B (80%< substrate protein remaining % ≤100%) | B (80%< substrate protein remaining % ≤100%) | A (0% ≤ substrate protein remaining % ≤80%) |
| O=C1CCN(N2Cc3cc(CN4CCC(c5ncnc6sc7c(c56)CCC7)CC4)ccc3C2=O)C(=O)N1 [GT-08113, 1-(5-((4-(6,7-dihydro-5H-cyclopenta[4,5]thieno[2,3-d]pyrimidin-4-yl)piperidin-1-yl)methyl)-1-oxoisoindolin-2-yl)dihydropyrimidine-2,4(1H,3H)-dione] | B (80%< substrate protein remaining % ≤100%) | A (0% ≤ substrate protein remaining % ≤80%) | B (80%< substrate protein remaining % ≤100%) | B (80%< substrate protein remaining % ≤100%) | B (80%< substrate protein remaining % ≤100%) | A (0% ≤ substrate protein remaining % ≤80%) |
| Cc1nc(C2CCN(Cc3ccc4c(c3)CN(N3CCC(=O)NC3=O)C4=O)CC2)c2c3c(sc2n1)CCC3 [GT-08114, 1-(5-((4-(2-methyl-6,7-dihydro-5H-cyclopenta[4,5]thieno[2,3-d]pyrimidin-4-yl)piperidin-1-yl)methyl)-1-oxoisoindolin-2-yl)dihydropyrimidine-2,4(1H,3H)-dione] | B (80%< substrate protein remaining % ≤100%) | B (80%< substrate protein remaining % ≤100%) | B (80%< substrate protein remaining % ≤100%) | B (80%< substrate protein remaining % ≤100%) | B (80%< substrate protein remaining % ≤100%) | A (0% ≤ substrate protein remaining % ≤80%) |
